Assay results from US8227207B2, “Bioactive peptides derived from the proteins of egg white by means of enzymatic hydrolysis” (Consejo Superior de Investigaciones Cientifcas, priority 2004, dated 2012).
One block for each compound: values may come before it. Residues, ends and D or L forms follow the SMILES beside them.

Experiments:
[1] = molecular target: ACE (Homo sapiens, UniProt P12821); details: according to the cited authors; listed as ovokinin; cited from earlier work
[2] = system: canine mesenteric arteries; details: listed as ovokinin; cited from earlier work
[3] = system: spontaneously hypertensive rats (SHR); details: ovokinin oral 100 mg/kg, ovokinin (2-7) 10 mg/kg; cited from earlier work
[4] = molecular target: T1, angiotensin converting enzyme (ACE, EC 3.4.15.1) (Oryctolagus cuniculus, UniProt P12822); assay type: biochemical
T1 sequence (P12822 34-1310): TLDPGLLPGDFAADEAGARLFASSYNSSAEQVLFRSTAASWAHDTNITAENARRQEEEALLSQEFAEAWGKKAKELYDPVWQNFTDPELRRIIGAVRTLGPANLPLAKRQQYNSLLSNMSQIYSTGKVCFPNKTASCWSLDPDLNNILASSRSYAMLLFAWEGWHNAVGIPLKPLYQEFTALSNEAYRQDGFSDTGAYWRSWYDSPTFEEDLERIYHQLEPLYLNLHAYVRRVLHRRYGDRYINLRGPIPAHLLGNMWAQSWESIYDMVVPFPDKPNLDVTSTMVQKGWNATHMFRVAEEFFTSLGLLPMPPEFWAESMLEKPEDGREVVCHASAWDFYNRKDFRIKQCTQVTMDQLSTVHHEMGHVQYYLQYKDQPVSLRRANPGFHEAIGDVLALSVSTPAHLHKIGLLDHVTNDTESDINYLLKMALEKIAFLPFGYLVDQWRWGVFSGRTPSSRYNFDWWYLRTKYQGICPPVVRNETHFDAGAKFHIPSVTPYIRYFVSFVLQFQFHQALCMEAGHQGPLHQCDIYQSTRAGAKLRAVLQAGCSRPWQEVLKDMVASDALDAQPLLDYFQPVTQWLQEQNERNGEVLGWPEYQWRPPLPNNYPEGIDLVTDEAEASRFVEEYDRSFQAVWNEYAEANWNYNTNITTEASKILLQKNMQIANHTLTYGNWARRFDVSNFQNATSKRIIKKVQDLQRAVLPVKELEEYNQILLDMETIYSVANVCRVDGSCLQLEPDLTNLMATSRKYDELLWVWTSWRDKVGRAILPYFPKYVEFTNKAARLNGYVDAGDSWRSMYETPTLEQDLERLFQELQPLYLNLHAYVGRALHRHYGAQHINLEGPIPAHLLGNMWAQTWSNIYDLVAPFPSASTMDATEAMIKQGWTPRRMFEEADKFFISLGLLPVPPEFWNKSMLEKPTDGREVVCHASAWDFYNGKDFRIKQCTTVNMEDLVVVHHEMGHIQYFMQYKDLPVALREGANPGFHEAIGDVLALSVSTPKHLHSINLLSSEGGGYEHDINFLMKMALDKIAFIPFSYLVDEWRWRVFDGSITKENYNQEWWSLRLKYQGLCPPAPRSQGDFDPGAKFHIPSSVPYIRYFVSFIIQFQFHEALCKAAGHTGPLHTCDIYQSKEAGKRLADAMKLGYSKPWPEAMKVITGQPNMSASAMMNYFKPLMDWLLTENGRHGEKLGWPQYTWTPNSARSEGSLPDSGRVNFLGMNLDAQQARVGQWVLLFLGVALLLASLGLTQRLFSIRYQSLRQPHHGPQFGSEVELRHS
Method: (§1) The inhibitory activity of the angiotensin converting enzyme (ACE) is measured in vitro according to the method of D. W. Cushman and H. S. Cheung (Spectrophotometric assay and properties of the angiotensin-converting enzyme of rabbit lung. Biochemical Pharmacology, 1971, 20: 1637-1648), later on modified by Y. K. Kim, S. Yoon, D. Y. Yu, B. Lönnerdal and B. H. Cheung (Novel angiotensin-I-converting enzyme inhibitory peptides derived from recombinant human αs1-casein expressed in Escherichia coli, Journal of Dairy Research 1999, 66, 431-439).
(§2) The substrate hippuryl histidyl leucine (HHL, Sigma Chemicals Co., St. Louis, Mo., USA) is dissolved in a 0.1 M borate buffer with 0.3 M NaCl pH 8.3 to obtain a final concentration of 5 mM. To 100 μl of substrate are added 40 μl of each of the samples whose ACEI activity it is wished to determine. The ACE enzyme (EC 3.4.15.1, Sigma) is added, dissolved in 50% glycerol and diluted 1/10 in bidistilled water at the moment of conducting the assay. The reaction is carried out at 37° C. for 30 minutes in a water-bath. The enzyme is deactivated by lowering the pH with 150 μl of 1 N HCl. The hippuric acid formed is extracted with 1000 μl of ethyl acetate. Following vortex stirring for 20 seconds, it is centrifuged at 4000 rpm for 10 minutes at room temperature. 750 μl of the organic phase are taken and evaporated by heating at 95° C. for 10 minutes. The hippuric acid residue is redissolved in 800 μl of bidistilled water and, following stirring for 20 seconds, the absorbency at 228 nm is measured in a Dur-70 spectrophotometer from Beckman Instruments, Inc., Fullerton, USA.
(§3) In order to calculate the percentage of ACEI activity, the following formula is used
(§4) The blank is used for correcting the background absorbency. This contains substrate, enzyme and 20 μl of bidistilled water in place of the sample, and the reaction is halted at zero time. The control implies a hundred percent of the enzymatic action on the substrate in the absence of inhibitors and contains 20 μl of water in place of the sample and is incubated the same time as the sample.
(§5) The results are presented as the IC50 (μM or μg/ml) or concentration at which 50% of the enzyme's activity is inhibited. The concentration of protein is determined by means of the bicinchonomic acid (BCA) assay (Pierce, Rockford, Ill., USA) using bovine seroalbumin as reference.

[5] = system: canine mesenteric arteries; details: literature; cited from earlier work
[6] = system: angiotensin converting enzyme (ACE) (EC 3.4.15.1, Sigma); assay: In vitro inhibitory activity of the angiotensin converting enzyme (ACEI activity); assay type: biochemical; details: result in words
Method: Measurement of the Inhibitory Activity of the Angiotensin Converting Enzyme (ACEI Activity)
as §1, §2, §3, §4, §5

[7] = system: spontaneously hypertensive rats (SHR); details: SHR; literature; ovokinin orally 100 mg/kg; cited from earlier work

ACE, sequence (P12821 30-1306, species assumed): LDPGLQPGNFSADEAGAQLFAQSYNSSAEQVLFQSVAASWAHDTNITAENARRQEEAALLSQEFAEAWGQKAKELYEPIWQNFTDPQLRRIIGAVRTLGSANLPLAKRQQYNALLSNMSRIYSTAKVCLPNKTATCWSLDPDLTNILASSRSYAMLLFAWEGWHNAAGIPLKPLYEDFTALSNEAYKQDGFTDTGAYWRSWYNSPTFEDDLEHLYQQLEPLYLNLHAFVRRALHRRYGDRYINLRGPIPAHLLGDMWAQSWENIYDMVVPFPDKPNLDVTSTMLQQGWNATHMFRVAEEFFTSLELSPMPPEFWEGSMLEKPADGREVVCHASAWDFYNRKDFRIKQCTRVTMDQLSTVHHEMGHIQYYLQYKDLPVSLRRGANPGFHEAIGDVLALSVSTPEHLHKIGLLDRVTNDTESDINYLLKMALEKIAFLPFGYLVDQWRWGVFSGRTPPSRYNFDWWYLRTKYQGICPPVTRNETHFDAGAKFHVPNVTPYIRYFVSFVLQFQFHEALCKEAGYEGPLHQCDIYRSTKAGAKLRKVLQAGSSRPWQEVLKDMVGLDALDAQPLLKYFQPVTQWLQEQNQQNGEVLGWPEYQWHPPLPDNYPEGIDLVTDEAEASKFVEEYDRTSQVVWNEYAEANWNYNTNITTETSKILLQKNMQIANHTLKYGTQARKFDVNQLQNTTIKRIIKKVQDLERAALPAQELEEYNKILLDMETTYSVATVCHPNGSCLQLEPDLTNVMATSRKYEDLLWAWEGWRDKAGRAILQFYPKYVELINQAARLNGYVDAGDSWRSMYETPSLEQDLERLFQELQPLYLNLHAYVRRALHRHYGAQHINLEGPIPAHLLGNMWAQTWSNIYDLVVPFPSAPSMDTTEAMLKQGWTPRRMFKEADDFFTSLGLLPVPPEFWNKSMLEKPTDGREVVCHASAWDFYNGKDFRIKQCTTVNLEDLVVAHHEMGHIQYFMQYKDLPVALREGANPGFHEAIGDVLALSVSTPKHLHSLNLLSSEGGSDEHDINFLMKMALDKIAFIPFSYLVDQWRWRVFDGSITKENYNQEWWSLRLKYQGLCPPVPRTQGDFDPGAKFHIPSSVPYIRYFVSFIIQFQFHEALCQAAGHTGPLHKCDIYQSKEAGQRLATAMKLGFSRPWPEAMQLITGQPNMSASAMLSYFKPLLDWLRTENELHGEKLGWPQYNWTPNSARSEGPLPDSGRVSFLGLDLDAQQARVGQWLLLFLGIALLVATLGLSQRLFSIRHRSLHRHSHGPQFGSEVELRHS

Structure (SMILES): CC(C)C[C@H](NC(=O)[C@H](Cc1ccccc1)NC(=O)[C@@H]1CCCN1C(=O)[C@H](Cc1c[nH]cn1)NC(=O)[C@H](CC(=O)O)NC(=O)[C@H](C)NC(=O)[C@H](CCCNC(=N)N)NC(=O)[C@@H](N)Cc1ccccc1)C(=O)O [SEQ. ID. N^o 5] (H-FRADHPFL-OH; N-terminus and C-terminus assumed)
ACEI activity (in words) [1]: did not possess ACEI activity | vasorelaxing (vasodilatory) activity (in words) [2]: displayed vasorelaxing activity | anti-hypertensive / vasodilatory activity in SHR (in words) [3]: possessed anti-hypertensive activity | ACEI activity in vitro (in words) ([4]; peptides): potent ACEI activity | IC50 ([4]; read-out: ACEI activity IC50, synthetic peptides): 3.2 µM

ACEI activity in vitro [6]: potent ACEI activity in vitro
Structure (SMILES): CC(C)C[C@H](NC(=O)[C@H](Cc1ccccc1)NC(=O)[C@@H]1CCCN1C(=O)[C@H](Cc1cnc[nH]1)NC(=O)[C@H](CC(=O)O)NC(=O)[C@H](C)NC(=O)[C@H](CCCNC(=N)N)NC(=O)[C@@H](N)Cc1ccccc1)C(=O)O [SEQ. ID. No 5] (H-FRADHPFL-OH)
vasorelaxing activity [5]: displayed vasorelaxing activity in canine mesenteric arteries | anti-hypertensive activity [7]: possessed anti-hypertensive activity when administered orally to spontaneously hypertensive rats (SHR) at doses of 100 mg/kg
